*1 amine or outer side, *2 acyl side, *3 side chain or, on linkers, in order; H or OH if unused. Where a SMILES comes first, the peptide text is derived from it. Bridges are numbered along the chain shown (N, C = ends). [ ]: non-standard residue; d: D form. The star is where a group is joined. ξ: configuration not given here. Trp(1-Me) = Cn1cc(C[C@H](N)C(=O)O)c2ccccc21; Bip = N[C@@H](Cc1ccc(-c2ccccc2)cc1)C(=O)O; Phe(3-Me) = Cc1cccc(C[C@H](N)C(=O)O)c1; γGlu = O=C(O)[C@H](CCC(=O)[*:2])N[*:1]; NMeAEEA = CN(CCOCCOCC(=O)[*:2])[*:1]; 4Pal = N[C@@H](Cc1ccncc1)C(=O)O; Cha = N[C@@H](CC1CCCCC1)C(=O)O; Cit = NC(=O)NCCC[C@H](N)C(=O)O; Ile(3ξ) = CCC(C)[C@H](N)C(=O)O; Thr(3ξ) = CC(O)[C@H](N)C(=O)O; 12Ado = NCCCCCCCCCCCC(=O)O; Carboxymethyl = O=C(O)C*; NMeA = CN[C@@H](C)C(=O)O; Orn = NCCC[C@H](N)C(=O)O; Aun = NCCCCCCCCCCC(=O)O; Dab = NCC[C@H](N)C(=O)O; Dap = NC[C@H](N)C(=O)O; AEEA = NCCOCCOCC(=O)O
These compounds were tested against T1, PD-1/PD-L1 interaction (PE-labeled human PD-L1-Ig binding to Jurkat cell line over-expressing human PD-1) (Homo sapiens, UniProt Q15116) (assay: Jurkat-PD-1 Cell Binding High-Content Screening Assay (CBA)). Conditions: Jurkat-hPD-1 cells, PE-labeled PD-L1-Ig 20 nM final; read-out: Jurkat HPD1 PDL1 IC50.
T1 construct: expressed in transfected cells; host or cells: Jurkat
T1 sequence (Q15116 25-288): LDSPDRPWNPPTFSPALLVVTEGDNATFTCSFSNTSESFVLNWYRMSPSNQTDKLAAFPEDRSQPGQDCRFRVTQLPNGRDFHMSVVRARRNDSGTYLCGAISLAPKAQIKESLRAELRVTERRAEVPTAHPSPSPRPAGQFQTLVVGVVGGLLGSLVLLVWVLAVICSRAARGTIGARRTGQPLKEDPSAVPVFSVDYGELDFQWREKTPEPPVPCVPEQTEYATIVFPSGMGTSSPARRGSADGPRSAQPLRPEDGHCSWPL
Outline: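 In this imaging assay, cells in 10% FCS medium see compound for 2 h at 37 °C and then labeled ligand at 20 nM final for 1 h. Paraformaldehyde fixation, Hoechst 33342 staining and dPBS washes precede image capture.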
For CCC(C)[C@@H]1NC(=O)[C@H](Cc2ccc(-c3ccccc3)cc2)NC(=O)[C@H](C(C)C)NC(=O)[C@H](Cc2c[nH]c3ccccc23)NC(=O)[C@H](CC(=O)O)NC(=O)[C@H](Cc2ccc(OCC(=O)O)cc2)NC(=O)[C@H](CN)NC(=O)CSC[C@@H](C(=O)N[C@@H](CCCN)C(=O)N[C@@H](CO)C(=O)NCCCCCCCCCCCC(=O)O)NC(=O)[C@H](C(C)O)NC(=O)[C@H](C(C)C)NC(=O)[C@H](CC2CCCCC2)NC(=O)[C@H](CCN)NC(=O)[C@@H](CC(C)C)NC(=O)[C@H](C)N(C)C1=O (stereo partly drawn) [Example 2409] ({CH2CO}-[Dap]Y(Carboxymethyl)DWV[Bip][Ile(3ξ)][NMeA][dL][Dab][Cha]V[Thr(3ξ)]C[Orn]S[12Ado]-OH; thioether N-14), the IC50 was 109 nM.
For CCC(C)[C@@H]1NC(=O)[C@H](Cc2ccc(-c3ccccc3)cc2)NC(=O)[C@H](C(C)C)NC(=O)[C@H](Cc2c[nH]c3ccccc23)NC(=O)[C@H](CC(=O)O)NC(=O)[C@H](Cc2ccc(OCC(=O)O)cc2)NC(=O)[C@H](C(C)O)NC(=O)CSC[C@@H](C(=O)N[C@@H](CCCN)C(=O)N[C@@H](CO)C(=O)NCCCCCCCCCCCC(=O)O)NC(=O)[C@H](C(C)O)NC(=O)[C@H](C(C)C)NC(=O)[C@H](CC2CCCCC2)NC(=O)[C@H](CCN)NC(=O)[C@@H](CC(C)C)NC(=O)[C@H](C)N(C)C1=O (stereo partly drawn) [Example 2410] ({CH2CO}-[Thr(3ξ)]Y(Carboxymethyl)DWV[Bip][Ile(3ξ)][NMeA][dL][Dab][Cha]V[Thr(3ξ)]C[Orn]S[12Ado]-OH; thioether N-14), the IC50 was 108 nM.
Compound CC(=O)NCCCC[C@@H]1NC(=O)[C@H](CC2CCCCC2)NC(=O)[C@H](CCN)NC(=O)[C@@H](CC(C)C)NC(=O)[C@H](C)N(C)C(=O)[C@H](CCCNC(N)=O)NC(=O)[C@H](Cc2ccc(-c3ccccc3)cc2)NC(=O)[C@H](Cc2ccc(O)cc2)NC(=O)[C@H](Cc2cccc(C)c2)NC(=O)[C@H](CC(=O)O)NC(=O)[C@H](Cc2ccc(OCC(=O)O)cc2)NC(=O)[C@H](Cc2ccncc2)NC(=O)CSC[C@@H](C(=O)N[C@@H](CCCN)C(=O)N[C@@H](CO)C(=O)NCCCCCCCCCCCC(=O)O)NC(=O)[C@H](C(C)O)NC1=O (stereo partly drawn) [Example 2411] ({CH2CO}-[4Pal]Y(Carboxymethyl)D[Phe(3-Me)]Y[Bip][Cit][NMeA][dL][Dab][Cha]K(Ac)[Thr(3ξ)]C[Orn]S[12Ado]-OH; thioether N-14) has an IC50 of 38.1 nM.
With Cc1cccc(C[C@@H]2NC(=O)[C@H](CC(=O)O)NC(=O)[C@H](Cc3ccc(OCC(=O)O)cc3)NC(=O)[C@H](C(C)O)NC(=O)CSC[C@@H](C(=O)N[C@@H](CCCN)C(=O)N[C@@H](CO)C(=O)NCCCCCCCCCCCC(=O)O)NC(=O)[C@H](C(C)O)NC(=O)[C@H](C(C)C)NC(=O)[C@H](CC3CCCCC3)NC(=O)[C@H](CCN)NC(=O)[C@@H](CC(C)C)NC(=O)[C@H](C)N(C)C(=O)[C@H](CCCNC(N)=O)NC(=O)[C@H](Cc3ccc(-c4ccccc4)cc3)NC(=O)[C@H](C(C)C)NC2=O)c1 (stereo partly drawn) [Example 2412] ({CH2CO}-[Thr(3ξ)]Y(Carboxymethyl)D[Phe(3-Me)]V[Bip][Cit][NMeA][dL][Dab][Cha]V[Thr(3ξ)]C[Orn]S[12Ado]-OH; thioether N-14) the IC50 was 12.9 nM.
Work on Cc1cccc(C[C@@H]2NC(=O)[C@H](CC(=O)O)NC(=O)[C@H](Cc3ccc(OCC(=O)O)cc3)NC(=O)[C@H](CN)NC(=O)CSC[C@@H](C(=O)N[C@@H](CCCN)C(=O)N[C@@H](CO)C(=O)NCCCCCCCCCCCC(=O)O)NC(=O)[C@H](C(C)O)NC(=O)[C@H](C(C)C)NC(=O)[C@H](CC3CCCCC3)NC(=O)[C@H](CCN)NC(=O)[C@@H](CC(C)C)NC(=O)[C@H](C)N(C)C(=O)[C@H](CCCNC(N)=O)NC(=O)[C@H](Cc3ccc(-c4ccccc4)cc3)NC(=O)[C@H](C(C)C)NC2=O)c1 (stereo partly drawn) [Example 2413] ({CH2CO}-[Dap]Y(Carboxymethyl)D[Phe(3-Me)]V[Bip][Cit][NMeA][dL][Dab][Cha]V[Thr(3ξ)]C[Orn]S[12Ado]-OH; thioether N-14) yielded an IC50 of 16.5 nM.
With Cc1cccc(C[C@@H]2NC(=O)[C@H](CC(=O)O)NC(=O)[C@H](Cc3ccc(OCC(=O)O)cc3)NC(=O)[C@H](CN)NC(=O)CSC[C@@H](C(=O)N(C)CCOCCOCC(=O)NCCCCCCCCCCC(=O)O)NC(=O)[C@H](CCCN)NC(=O)[C@H](C(C)C)NC(=O)[C@H](CC3CCCCC3)NC(=O)[C@H](CCN)NC(=O)[C@@H](CC(C)C)NC(=O)[C@H](C)N(C)C(=O)[C@H](C(C)C)NC(=O)[C@H](Cc3ccc(-c4ccccc4)cc3)NC(=O)[C@H](C(C)C)NC2=O)c1 [Example 2414] ({CH2CO}-[Dap]Y(Carboxymethyl)D[Phe(3-Me)]V[Bip]V[NMeA][dL][Dab][Cha]V[Orn]C[NMeAEEA][Aun]-OH; thioether N-14) the IC50 was 45 nM.
Compound CC(=O)NCCCC[C@@H]1NC(=O)[C@H](Cc2ccc(-c3ccccc3)cc2)NC(=O)[C@H](C(C)C)NC(=O)[C@H](Cc2cccc(C)c2)NC(=O)[C@H](CC(=O)O)NC(=O)[C@H](Cc2ccc(OCC(=O)O)cc2)NC(=O)[C@H](CN)NC(=O)CSC[C@@H](C(=O)N(C)CCOCCOCC(=O)NCCCCCCCCCCC(=O)O)NC(=O)[C@H](CCCN)NC(=O)[C@H](C(C)C)NC(=O)[C@H](CC2CCCCC2)NC(=O)[C@H](CCN)NC(=O)[C@@H](CC(C)C)NC(=O)[C@H](C)N(C)C1=O [Example 2415] ({CH2CO}-[Dap]Y(Carboxymethyl)D[Phe(3-Me)]V[Bip]K(Ac)[NMeA][dL][Dab][Cha]V[Orn]C[NMeAEEA][Aun]-OH; thioether N-14) has an IC50 of 41.2 nM.
Compound CCC(C)[C@@H]1NC(=O)[C@H](Cc2ccc(-c3ccccc3)cc2)NC(=O)[C@H](C(C)C)NC(=O)[C@H](Cc2cn(C)c3ccccc23)NC(=O)[C@H](CC(=O)O)NC(=O)[C@H](Cc2ccc(OCC(=O)O)cc2)NC(=O)[C@H](C(C)O)NC(=O)CSC[C@@H](C(=O)N[C@@H](CCCN)C(=O)NCCCCCCCCCCC(=O)O)NC(=O)[C@H](C(C)O)NC(=O)[C@H](C(C)C)NC(=O)[C@H](CC2CCCCC2)NC(=O)[C@H](CCN)NC(=O)[C@@H](CC(C)C)NC(=O)[C@H](C)N(C)C1=O (stereo partly drawn) [Example 2416] ({CH2CO}-[Thr(3ξ)]Y(Carboxymethyl)D[Trp(1-Me)]V[Bip][Ile(3ξ)][NMeA][dL][Dab][Cha]V[Thr(3ξ)]C[Orn][Aun]-OH; thioether N-14) has an IC50 of 570 nM.
CCC(C)[C@@H]1NC(=O)[C@H](Cc2ccc(-c3ccccc3)cc2)NC(=O)[C@H](C(C)C)NC(=O)[C@H](Cc2c[nH]c3ccccc23)NC(=O)[C@H](CC(=O)O)NC(=O)[C@H](Cc2ccc(OCC(=O)O)cc2)NC(=O)[C@H](C(C)O)NC(=O)CSC[C@@H](C(=O)N[C@@H](CCCN)C(=O)N[C@@H](CCC(=O)NCCCCCCCCCCCC(=O)O)C(=O)O)NC(=O)[C@H](C(C)O)NC(=O)[C@H](C(C)C)NC(=O)[C@H](CC2CCCCC2)NC(=O)[C@H](CCN)NC(=O)[C@@H](CC(C)C)NC(=O)[C@H](C)N(C)C1=O (stereo partly drawn) [Example 2417] ({CH2CO}-[Thr(3ξ)]Y(Carboxymethyl)DWV[Bip][Ile(3ξ)][NMeA][dL][Dab][Cha]V[Thr(3ξ)]C[Orn][γGlu][12Ado]-OH; thioether N-14) showed an IC50 of 32.3 nM.
CCC(C)[C@@H]1NC(=O)[C@H](Cc2ccc(-c3ccccc3)cc2)NC(=O)[C@H](C(C)C)NC(=O)[C@H](Cc2c[nH]c3ccccc23)NC(=O)[C@H](CC(=O)O)NC(=O)[C@H](Cc2ccc(OCC(=O)O)cc2)NC(=O)[C@H](C(C)O)NC(=O)CSC[C@@H](C(=O)N[C@@H](CCCN)C(=O)N[C@@H](CCC(=O)NCCCCCCCCCCCC(=O)O)C(=O)O)NC(=O)[C@H](C(C)O)NC(=O)[C@H](C(C)C)NC(=O)[C@H](CC2CCCCC2)NC(=O)[C@H](CCN)NC(=O)[C@@H](CC(C)C)NC(=O)[C@H](C)N(C)C1=O (stereo partly drawn) [Example 2418] ({CH2CO}-[Thr(3ξ)]Y(Carboxymethyl)DWV[Bip][Ile(3ξ)][NMeA][dL][Dab][Cha]V[Thr(3ξ)]C[Orn][γGlu][12Ado]-OH; thioether N-14) was tested, and the IC50 was 46.8 nM.
In the case of CC(=O)NCCCC[C@@H]1NC(=O)[C@H](Cc2ccc(-c3ccccc3)cc2)NC(=O)[C@H](Cc2ccc(O)cc2)NC(=O)[C@H](Cc2cccc(C)c2)NC(=O)[C@H](CC(=O)O)NC(=O)[C@H](Cc2ccc(OCC(=O)O)cc2)NC(=O)[C@H](CCN)NC(=O)CSC[C@@H](C(=O)NCCOCCOCC(=O)NCCCCCCCCCCC(=O)O)NC(=O)[C@H](C(C)O)NC(=O)[C@H](C(C)C)NC(=O)[C@H](CC2CCCCC2)NC(=O)[C@H](CCN)NC(=O)[C@@H](CC(C)C)NC(=O)[C@H](C)N(C)C1=O (stereo partly drawn) [Example 2419] ({CH2CO}-[Dab]Y(Carboxymethyl)D[Phe(3-Me)]Y[Bip]K(Ac)[NMeA][dL][Dab][Cha]V[Thr(3ξ)]C[AEEA][Aun]-OH; thioether N-14), the IC50 is reported as 52.4 nM.
Compound CC(=O)NCCCC[C@@H]1NC(=O)[C@H](Cc2ccc(-c3ccccc3)cc2)NC(=O)[C@H](Cc2ccc(O)cc2)NC(=O)[C@H](Cc2cccc(C)c2)NC(=O)[C@H](CC(=O)O)NC(=O)[C@H](Cc2ccc(OCC(=O)O)cc2)NC(=O)[C@H](C(C)O)NC(=O)CSC[C@@H](C(=O)NCCOCCOCC(=O)NCCCCCCCCCCC(=O)O)NC(=O)[C@H](C(C)O)NC(=O)[C@H](C(C)C)NC(=O)[C@H](CC2CCCCC2)NC(=O)[C@H](CCN)NC(=O)[C@@H](CC(C)C)NC(=O)[C@H](C)N(C)C1=O (stereo partly drawn) [Example 2420] ({CH2CO}-[Thr(3ξ)]Y(Carboxymethyl)D[Phe(3-Me)]Y[Bip]K(Ac)[NMeA][dL][Dab][Cha]V[Thr(3ξ)]C[AEEA][Aun]-OH; thioether N-14) has an IC50 of 35.4 nM.
CC(=O)NCCCC[C@@H]1NC(=O)[C@H](Cc2ccc(-c3ccccc3)cc2)NC(=O)[C@H](Cc2ccc(O)cc2)NC(=O)[C@H](Cc2cccc(C)c2)NC(=O)[C@H](CC(=O)O)NC(=O)[C@H](Cc2ccc(OCC(=O)O)cc2)NC(=O)[C@H](CCN)NC(=O)CSC[C@@H](C(=O)N[C@@H](CCN)C(=O)NCCCCCCCCCCC(=O)O)NC(=O)[C@H](C(C)O)NC(=O)[C@H](C(C)C)NC(=O)[C@H](CC2CCCCC2)NC(=O)[C@H](CCN)NC(=O)[C@@H](CC(C)C)NC(=O)[C@H](C)N(C)C1=O (stereo partly drawn) [Example 2421] ({CH2CO}-[Dab]Y(Carboxymethyl)D[Phe(3-Me)]Y[Bip]K(Ac)[NMeA][dL][Dab][Cha]V[Thr(3ξ)]C[Dab][Aun]-OH; thioether N-14) gave an IC50 of 14.6 nM.

— patent US20260070945A1, “MACROCYCLIC IMMUNOMODULATORS” (Bristol-Myers Squibb Company, priority 2022, published 2026)
